Measured values reported in patent publication US12448389B2, “BRM targeting compounds and associated methods of use” (Prelude Therapeutics Incorporated, priority 2020, dated 2025).

What was measured:
SMARCA4-HiBiT = molecular target: T1, SMARCA4-HiBiT (Homo sapiens, UniProt P51532); assay: SMARCA4 HiBiT degradation assay in HeLa cells; assay type: cell-based; settings: 18 hours incubation; for DC50: read-out: HeLa-HiBit-SM4 DC50; for Dmax: HeLa, read-out: HeLa-HiBit-SM4 Dmax (%)
T1 construct: SMARCA4-HiBiT knock-in Hela monoclonal cell (CS3023226); host or cells: HeLa monoclonal knock-in line (CRISPR HiBiT knock-in at the endogenous locus, heterozygous)
How it was run: (§1)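 HeLa monoclonal lines with heterozygous HiBiT knock-in were seeded at 2500 cells/well in EMEM with 10% FBS and treated with compound for 18 h at 37 °C. Remaining tagged protein was measured by Nano-Glo HiBiT lytic luminescence after 30–60 min at RT, and values came from curve fitting.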

SMARCA2-HiBiT = molecular target: T2, SMARCA2-HiBiT (Homo sapiens, UniProt P51531); assay: SMARCA2 HiBiT degradation assay in HeLa cells; assay type: cell-based; settings: 18 hours incubation; for DC50: read-out: HeLa_HiBit-SM2 DC50; for Dmax: HeLa, read-out: HeLa-HiBit-SM2 Dmax (%)
T2 construct: SMARCA2-HiBiT knock-in Hela monoclonal cell (CS302366); host or cells: HeLa monoclonal knock-in line (CRISPR HiBiT knock-in at the endogenous locus, heterozygous)
How it was run: as §1

T2 sequence (P51531 whole entry): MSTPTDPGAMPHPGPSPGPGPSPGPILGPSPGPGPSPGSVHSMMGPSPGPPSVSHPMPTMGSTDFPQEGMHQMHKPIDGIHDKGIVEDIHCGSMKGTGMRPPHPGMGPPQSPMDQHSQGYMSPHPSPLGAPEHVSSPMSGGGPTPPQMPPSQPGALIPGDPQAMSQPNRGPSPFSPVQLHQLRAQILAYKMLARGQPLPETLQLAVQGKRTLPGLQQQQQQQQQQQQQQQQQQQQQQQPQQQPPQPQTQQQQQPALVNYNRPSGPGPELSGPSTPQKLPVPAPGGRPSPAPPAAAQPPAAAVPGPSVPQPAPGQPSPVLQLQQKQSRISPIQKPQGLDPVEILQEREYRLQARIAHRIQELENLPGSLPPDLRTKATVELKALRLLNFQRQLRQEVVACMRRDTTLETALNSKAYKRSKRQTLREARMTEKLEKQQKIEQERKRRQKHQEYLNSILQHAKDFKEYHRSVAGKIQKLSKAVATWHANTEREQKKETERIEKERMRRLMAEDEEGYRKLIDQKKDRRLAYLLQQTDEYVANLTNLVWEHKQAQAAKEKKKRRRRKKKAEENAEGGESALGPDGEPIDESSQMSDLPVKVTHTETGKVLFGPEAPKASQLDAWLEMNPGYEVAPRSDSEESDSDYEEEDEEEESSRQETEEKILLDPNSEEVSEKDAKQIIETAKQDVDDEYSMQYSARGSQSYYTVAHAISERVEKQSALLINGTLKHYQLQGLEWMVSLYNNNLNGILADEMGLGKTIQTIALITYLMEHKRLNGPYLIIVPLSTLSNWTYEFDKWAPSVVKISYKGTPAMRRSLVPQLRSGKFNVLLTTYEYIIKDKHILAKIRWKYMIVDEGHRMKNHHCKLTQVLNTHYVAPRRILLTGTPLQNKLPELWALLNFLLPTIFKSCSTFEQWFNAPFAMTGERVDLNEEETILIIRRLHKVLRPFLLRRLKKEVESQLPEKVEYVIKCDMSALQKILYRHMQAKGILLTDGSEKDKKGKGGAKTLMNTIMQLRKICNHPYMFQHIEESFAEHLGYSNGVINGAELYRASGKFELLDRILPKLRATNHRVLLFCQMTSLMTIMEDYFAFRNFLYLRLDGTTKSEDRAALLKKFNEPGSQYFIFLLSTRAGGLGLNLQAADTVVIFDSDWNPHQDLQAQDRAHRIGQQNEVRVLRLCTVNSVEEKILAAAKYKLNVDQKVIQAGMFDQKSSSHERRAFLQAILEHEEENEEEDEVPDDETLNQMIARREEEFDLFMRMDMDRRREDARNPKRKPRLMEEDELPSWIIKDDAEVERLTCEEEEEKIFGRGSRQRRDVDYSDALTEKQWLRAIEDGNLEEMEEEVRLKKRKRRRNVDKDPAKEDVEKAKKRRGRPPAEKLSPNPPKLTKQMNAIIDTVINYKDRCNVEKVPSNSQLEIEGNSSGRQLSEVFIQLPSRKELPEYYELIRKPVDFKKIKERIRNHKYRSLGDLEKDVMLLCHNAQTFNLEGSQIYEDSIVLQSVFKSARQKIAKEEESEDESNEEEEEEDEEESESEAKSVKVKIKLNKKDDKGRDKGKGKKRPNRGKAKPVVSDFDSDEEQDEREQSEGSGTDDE
T1 sequence (P51532 whole entry): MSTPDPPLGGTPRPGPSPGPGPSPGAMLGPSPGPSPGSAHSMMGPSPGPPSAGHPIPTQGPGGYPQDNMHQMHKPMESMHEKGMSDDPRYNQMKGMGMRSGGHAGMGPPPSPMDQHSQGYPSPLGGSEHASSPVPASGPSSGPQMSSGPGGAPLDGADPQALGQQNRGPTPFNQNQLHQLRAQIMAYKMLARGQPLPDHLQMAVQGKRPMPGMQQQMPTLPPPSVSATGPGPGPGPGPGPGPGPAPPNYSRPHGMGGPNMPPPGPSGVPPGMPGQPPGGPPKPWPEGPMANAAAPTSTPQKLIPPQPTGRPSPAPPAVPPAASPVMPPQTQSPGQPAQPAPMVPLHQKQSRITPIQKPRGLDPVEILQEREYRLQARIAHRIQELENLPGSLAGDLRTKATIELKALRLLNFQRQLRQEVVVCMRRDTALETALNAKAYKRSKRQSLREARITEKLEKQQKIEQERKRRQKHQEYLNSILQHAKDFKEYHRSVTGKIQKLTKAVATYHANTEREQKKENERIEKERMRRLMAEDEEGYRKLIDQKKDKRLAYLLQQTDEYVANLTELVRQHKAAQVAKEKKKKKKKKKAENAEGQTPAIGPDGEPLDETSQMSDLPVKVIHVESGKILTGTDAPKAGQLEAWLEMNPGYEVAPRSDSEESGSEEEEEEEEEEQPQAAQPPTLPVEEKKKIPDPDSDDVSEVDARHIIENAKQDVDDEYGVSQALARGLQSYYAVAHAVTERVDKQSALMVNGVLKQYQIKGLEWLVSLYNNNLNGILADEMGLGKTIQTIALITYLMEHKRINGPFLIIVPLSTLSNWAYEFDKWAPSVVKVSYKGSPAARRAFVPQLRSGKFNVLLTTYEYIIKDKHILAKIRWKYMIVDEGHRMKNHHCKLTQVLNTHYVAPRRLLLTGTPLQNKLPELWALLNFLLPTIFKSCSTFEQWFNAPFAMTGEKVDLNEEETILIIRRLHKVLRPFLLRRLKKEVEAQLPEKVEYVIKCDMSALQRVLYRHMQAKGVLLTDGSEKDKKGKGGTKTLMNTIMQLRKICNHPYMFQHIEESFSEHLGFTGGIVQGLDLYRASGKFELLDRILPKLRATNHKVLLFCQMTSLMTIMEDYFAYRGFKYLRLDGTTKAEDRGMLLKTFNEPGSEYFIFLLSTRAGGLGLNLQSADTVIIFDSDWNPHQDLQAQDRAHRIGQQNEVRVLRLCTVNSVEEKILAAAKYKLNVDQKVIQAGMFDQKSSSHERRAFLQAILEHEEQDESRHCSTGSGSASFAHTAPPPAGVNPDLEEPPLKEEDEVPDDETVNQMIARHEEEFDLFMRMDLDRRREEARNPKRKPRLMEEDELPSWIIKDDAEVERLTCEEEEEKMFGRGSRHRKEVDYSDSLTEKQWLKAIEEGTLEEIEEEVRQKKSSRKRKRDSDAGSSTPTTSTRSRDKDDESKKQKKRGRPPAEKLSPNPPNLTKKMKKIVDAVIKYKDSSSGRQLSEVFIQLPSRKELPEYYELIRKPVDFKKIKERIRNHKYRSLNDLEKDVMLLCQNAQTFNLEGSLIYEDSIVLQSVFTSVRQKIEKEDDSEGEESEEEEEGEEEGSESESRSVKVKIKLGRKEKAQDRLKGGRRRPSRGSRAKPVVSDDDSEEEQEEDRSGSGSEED

SMILES	DC50 (SMARCA4-HiBiT) [nM]	Dmax (SMARCA4-HiBiT) [%]	DC50 (SMARCA2-HiBiT) [nM]	Dmax (SMARCA2-HiBiT) [%]	HeLa-HiBit-SM4 Dmax (%) (SMARCA4-HiBiT)	HeLa-HiBit-SM2 Dmax (%) (SMARCA2-HiBiT)
O=C1CCC(N2Cc3ccc(N4CC(CN5CCN(C(=O)N6CCN7c8cc(-c9ccccc9O)nnc8NC[C@H]7C6)CC5)C4)cc3C2=O)C(=O)N1 (stereo partly drawn) [Example 107, 3-(6-(3-((4-((S)-2-(2-hydroxyphenyl)-6,6a,7,8,9,10-hexahydro-5H-pyrazino[1′,2′:4,5]pyrazino[2,3-c]pyridazine-8-carbonyl)piperazin-1-yl)methyl)azetidin-1-yl)-1-oxoisoindolin-2-yl)piperidine-2,6-dione]	10 to 100	75 to 85	< 10	> 85	–	–
CC(CN1CCC(N2CCN3c4cc(-c5ccccc5O)nnc4NC[C@H]3C2)CC1)Oc1ccc2c(c1)CN([C@@H]1CCC(=O)NC1=O)C2=O (stereo partly drawn) [Example 214, (3R)-3-(5-((1-(4-((S)-2-(2-hydroxyphenyl)-5,6,6a,7,9,10-hexahydro-8H-pyrazino[1′,2′:4,5]pyrazino[2,3-c]pyridazin-8-yl)piperidin-1-yl)propan-2-yl)oxy)-1-oxoisoindolin-2-yl)piperidine-2,6-dione]	< 10	50 to 75	< 10	75 to 85	–	–
O=C1CCC(N2Cc3ccc(N4CCC(CN5CCN(C(=O)N6CCN7c8cc(-c9ccccc9O)nnc8NC[C@H]7C6)C6(CC6)C5)CC4)cc3C2=O)C(=O)N1 (stereo partly drawn) [Example 262, 3-(6-(4-((4-((S)-2-(2-hydroxyphenyl)-6,6a,7,8,9,10-hexahydro-5H-pyrazino[1′,2′:4,5]pyrazino[2,3-c]pyridazine-8-carbonyl)-4,7-diazaspiro[2.5]octan-7-yl)methyl)piperidin-1-yl)-1-oxoisoindolin-2-yl)piperidine-2,6-dione]	< 10	> 85	< 10	> 85	–	–
O=C1CCC(N2C(=O)c3ccc(N4CCC(N5C[C@@H]6[C@@H](CN7CCN8c9cc(-c%10ccccc%10O)nnc9NC[C@H]8C7)[C@@H]6C5)CC4)cc3C2=O)C(=O)N1 (stereo partly drawn) [Example 90, 2-(2,6-dioxopiperidin-3-yl)-5-(4-((1R,5S,6s)-6-(((S)-2-(2-hydroxyphenyl)-5,6,6a,7,9,10-hexahydro-8H-pyrazino[1′,2′:4,5]pyrazino[2,3-c]pyridazin-8-yl)methyl)-3-azabicyclo[3.1.0]hexan-3-yl)piperidin-1-yl)isoindoline-1,3-dione]	10 to 100	50 to 75	< 10	50 to 75	–	–
O=C1CCC(N2C(=O)c3ccc(N4CC5(CC(CN6CCC(CN7CCN8c9cc(-c%10ccccc%10O)nnc9NC[C@H]8C7)CC6)C5)C4)cc3C2=O)C(=O)N1 (stereo partly drawn) [Example 147, 2-(2,6-dioxopiperidin-3-yl)-5-(6-((4-(((S)-2-(2-hydroxyphenyl)-5,6,6a,7,9,10-hexahydro-8H-pyrazino[1′,2′:4,5]pyrazino[2,3-c]pyridazin-8-yl)methyl)piperidin-1-yl)methyl)-2-azaspiro[3.3]heptan-2-yl)isoindoline-1,3-dione]	< 10	> 85	< 10	> 85	–	–
O=C1CCC(N2C(=O)c3ccc(N4CCN(C(=O)OCCN5CCC(N6CCN7c8cc(-c9ccccc9O)nnc8NC[C@H]7C6)CC5)CC4)cc3C2=O)C(=O)N1 (stereo partly drawn) [Example 223, 2-(4-((S)-2-(2-hydroxyphenyl)-5,6,6a,7,9,10-hexahydro-8H-pyrazino[1′,2′:4,5]pyrazino[2,3-c]pyridazin-8-yl)piperidin-1-yl)ethyl 4-(2-(2,6-dioxopiperidin-3-yl)-1,3-dioxoisoindolin-5-yl)piperazine-1-carboxylate]	< 10	75 to 85	< 10	75 to 85	–	–
O=C1CCC(N2Cc3ccc(C4CCN(CCN5CCC(N6CCN7c8cc(-c9ccccc9O)nnc8NC[C@H]7C6)CC5)CC4)cc3C2=O)C(=O)N1 (stereo partly drawn) [Example 118, 3-(6-(1-(2-(4-((S)-2-(2-hydroxyphenyl)-5,6,6a,7,9,10-hexahydro-8H-pyrazino[1′,2′:4,5]pyrazino[2,3-c]pyridazin-8-yl)piperidin-1-yl)ethyl)piperidin-4-yl)-1-oxoisoindolin-2-yl)piperidine-2,6-dione]	10 to 100	> 85	< 10	> 85	–	–
O=C1CCC(N2Cc3cc(OCCN4CCCC(CN5CCN6c7cc(-c8ccccc8O)nnc7NC[C@H]6C5)C4)ccc3C2=O)C(=O)N1 (stereo partly drawn) [Example 255, 3-(5-(2-(3-(((S)-2-(2-hydroxyphenyl)-5,6,6a,7,9,10-hexahydro-8H-pyrazino[1′,2′:4,5]pyrazino[2,3-c]pyridazin-8-yl)methyl)piperidin-1-yl)ethoxy)-1-oxoisoindolin-2-yl)piperidine-2,6-dione]	100 to 1000	≤ 50	10 to 100	75 to 85	–	–
CCC1CN(CC2CCN(c3ccc4c(c3)C(=O)N(C3CCC(=O)NC3=O)C4)CC2)CCN1C(=O)N1CCN2c3cc(-c4ccccc4O)nnc3NC[C@H]2C1 (stereo partly drawn) [Example 271, 3-(6-(4-((3-ethyl-4-((S)-2-(2-hydroxyphenyl)-6,6a,7,8,9,10-hexahydro-5H-pyrazino[1′,2′:4,5]pyrazino[2,3-c]pyridazine-8-carbonyl)piperazin-1-yl)methyl)piperidin-1-yl)-1-oxoisoindolin-2-yl)piperidine-2,6-dione]	< 10	–	< 10	–	–	–
O=C1CCC(N2Cc3cc(C4CCN(C5CCN(CCCN6CCN7c8cc(-c9ccccc9O)nnc8NC[C@H]7C6)C5)CC4)ccc3C2=O)C(=O)N1 (stereo partly drawn) [Example 208, 3-(5-(1-(1-(3-((S)-2-(2-hydroxyphenyl)-5,6,6a,7,9,10-hexahydro-8H-pyrazino[1′,2′:4,5]pyrazino[2,3-c]pyridazin-8-yl)propyl)pyrrolidin-3-yl)piperidin-4-yl)-1-oxoisoindolin-2-yl)piperidine-2,6-dione]	< 10	50 to 75	< 10	75 to 85	–	–
O=C1CCC(N2C(=O)c3ccc(N4CC[C@H](CN5C[C@@H]6[C@H](C5)[C@H]6CN5CCN6c7cc(-c8cc(F)ccc8O)nnc7NC[C@H]6C5)[C@@H](F)C4)cc3C2=O)C(=O)N1 (stereo partly drawn) [Example 278, 2-(2,6-dioxopiperidin-3-yl)-5-((3R,4R)-3-fluoro-4-(((1R,5S,6R)-6-(((S)-2-(5-fluoro-2-hydroxyphenyl)-5,6,6a,7,9,10-hexahydro-8H-pyrazino[1′,2′:4,5]pyrazino[2,3-c]pyridazin-8-yl)methyl)-3-azabicyclo[3.1.0]hexan-3-yl)methyl)piperidin-1-yl) isoindoline-1,3-dione]	< 10	–	< 10	–	A (A=Dmax>85%)	A (A=Dmax>85%)
O=C1CCC(N2C(=O)c3ccc(N4CCN(CCN5CCO[C@H](CN6CCN7c8cc(-c9ccccc9O)nnc8NC[C@H]7C6)C5)CC4)cc3C2=O)C(=O)N1 (stereo partly drawn) [Example 159, 2-(2,6-dioxopiperidin-3-yl)-5-(4-(2-((R)-2-(((S)-2-(2-hydroxyphenyl)-5,6,6a,7,9,10-hexahydro-8H-pyrazino[1′,2′:4,5]pyrazino[2,3-c]pyridazin-8-yl)methyl)morpholino)ethyl)piperazin-1-yl)isoindoline-1,3-dione]	< 10	50 to 75	< 10	> 85	–	–
